Assay results taken from patent EP0275207A2, “Pharmaceutical and veterinary compositions” (priority 1987, dated 1988).

What was measured:
Trichophyton rubrum = experiment: 7 day growth test in phosphate buffered saline solution (ED 50 and ED 90); format: cell-based; details: for EDso and ED90 results against T. Rubrum: compared to those obtained using bis THP phosphite and THP sulphate; for Mg. growth (% of control) / Mg. growth dry weight / ED50 / ED90: 7 day test; for ED50 / ED90: ppm (Active Compound)
Source text: The activity of 50% aqueous bis THP phosphite, 50% aqueous mono THP phosphite and 80% aqueous THP sulphate against Trichophyton rubrum were compared in a 7 day test in phosphate buffered saline solution to determine ED 50 and ED 90 values.

Naegleria = experiment: In vitro kill of protozoon; format: cell-based
protozoal infection = experiment: Treatment of fish pond with an infected Koi Carp; format: in vivo; details: 100 ppm dosed to the pond, concentration of 27 ppm in the pond water
Description: 100 ppm of 75% aqueous THP sulphate was dosed to the pond via the oxygenating venturi to provide a concentration of 27 ppm in the pond water.

fungi = experiment: Time-kill test (surviving organisms by plate count) in phosphate buffered saline, yeast and fungal strains; format: cell-based; details: after 24 hours
Description: The following yeast and fungal strains were used in the tests: • Candida albicans ATCC 10231 • Candida tropicalis NCPF 3111 • Absidia corymbifera NCPF 2001 • Sporotrichum schenkii NCPF 3182 • Trichophyton rubrum NCPF 197 • Trichophyton mentagrophytes NCPF 351 • Microsporum Canis NCPF 351 • Penicillium funicolosum CMI 114933 • Aureobasidium pullulans CMI 45533
Inocula for the two yeast (Candida) strains wre prepared from cultures on Sabouraud dextrose agar (SDA Oxide CM 141) incubated at 37°C for 48 hours. Surface growth of the organisms was suspended in sterile physiological saline and standardised by plate counts to contain approximatedly 10^6 cfu/ml. […]
(§1) The test solutions as described in (5) above were prepared in 50 ml volumes and the test solutions plus a 100 ml volume of PBS (as control) were inoculated with appropriate volumes (0.5 to 1 ml) of the inocula prepared as described in (2) above, shaken to evenly distribute the inoculum and held at room temperature. Immediatedly after inoculation (time 0) and then at pre-determined times 0.1 ml aliquots were removed from the test and control solutions for counting. […]
(§2) Developing colonies were then counted and by reference to the appropriate dilution ratios the numbers of surviving organisms at each compound concentration/time point were calculated.

bacteria = experiment: Time-kill test (surviving organisms by plate count) in phosphate buffered saline, bacterial strains; format: cell-based; details: within 2 to 6 hours of exposure
Description: The following bacterial strains were used in the tests: • Streptococcus pyogenes NCTC 8198 • Streptococcus faecalis ATCC 19433 • Sarcina lutea ATCC 9341 • Proteus mirabilis NCTC 8559 • Proteus vulgaris NCTB 4175 • Klebsiella pneumoniae NCTC 10341 • Salmonella typhimurium NCTB 10258 • Salmonella enteritidis NCTC 6676 • Shigella boydii NCTC 9328 • Bacillus subtilus ATCC 6633 • Bacillus cereus ATCC 11778
Inocula for the bacterial strains were prepared from cultures on Tryptone soy agar (TSA, Oxoid CM 131) incubated at 37° C for 24 hours. […]
as §1, §2

bis THP phosphate
EDso and ED90 results against T. Rubrum (Trichophyton rubrum): substantially similar

THP citrate
EDso and ED90 results against T. Rubrum (Trichophyton rubrum): substantially similar

THP lactate
EDso and ED90 results against T. Rubrum (Trichophyton rubrum): substantially similar

OC[P+](CO)(CO)CO [THP bromide]
EDso and ED90 results against T. Rubrum (Trichophyton rubrum): substantially similar

THP borate
EDso and ED90 results against T. Rubrum (Trichophyton rubrum): substantially similar

THP fluoride
EDso and ED90 results against T. Rubrum (Trichophyton rubrum): substantially similar

OC[P+](CO)(CO)CO.[Cl-] [THP chloride, tetrakis (hydroxymethyl) phosphonium chloride]
EDso and ED90 results against T. Rubrum (Trichophyton rubrum): substantially similar

tetrakis(hydroxymethyl) phosphonium sulphate [80% THP Sulphate]
Mg. growth (% of control) (Trichophyton rubrum; 8 ppm (Active Compound)): (92) % of control | Mg. growth dry weight (Trichophyton rubrum; 8 ppm (Active Compound)): 7.3 Mg. | Mg. growth (% of control) (Trichophyton rubrum; 24 ppm (Active Compound)): (0) % of control | Mg. growth dry weight (Trichophyton rubrum; 24 ppm (Active Compound)): 0 Mg. | Mg. growth (% of control) (Trichophyton rubrum; 80 ppm (Active Compound)): (0) % of control | Mg. growth dry weight (Trichophyton rubrum; 80 ppm (Active Compound)): 0 Mg. | Mg. growth (% of control) (Trichophyton rubrum; 240 ppm (Active Compound)): (0) % of control | Mg. growth dry weight (Trichophyton rubrum; 240 ppm (Active Compound)): 0 Mg. | Mg. growth (% of control) (Trichophyton rubrum; 800 ppm (Active Compound)): (0) % of control | Mg. growth dry weight (Trichophyton rubrum; 800 ppm (Active Compound)): 0 Mg. | ED50 (Trichophyton rubrum): 14 ppm | ED90 (Trichophyton rubrum): 20 ppm

THP tartrate
EDso and ED90 results against T. Rubrum (Trichophyton rubrum): substantially similar

THP acetate
EDso and ED90 results against T. Rubrum (Trichophyton rubrum): substantially similar

mono THP phosphite [50% THP phosphite]
Mg. growth (% of control) (Trichophyton rubrum; 5 ppm (Active Compound)): (131) % of control | Mg. growth dry weight (Trichophyton rubrum; 5 ppm (Active Compound)): 9.3 Mg. | Mg. growth (% of control) (Trichophyton rubrum; 15 ppm (Active Compound)): (39) % of control | Mg. growth dry weight (Trichophyton rubrum; 15 ppm (Active Compound)): 2.8 Mg. | Mg. growth (% of control) (Trichophyton rubrum; 50 ppm (Active Compound)): (44) % of control | Mg. growth dry weight (Trichophyton rubrum; 50 ppm (Active Compound)): 3.1 Mg. | Mg. growth (% of control) (Trichophyton rubrum; 150 ppm (Active Compound)): (32) % of control | Mg. growth dry weight (Trichophyton rubrum; 150 ppm (Active Compound)): 2.3 Mg. | Mg. growth (% of control) (Trichophyton rubrum; 500 ppm (Active Compound)): (23) % of control | Mg. growth dry weight (Trichophyton rubrum; 500 ppm (Active Compound)): 1.6 Mg. | ED50 (Trichophyton rubrum): 11 ppm | ED90 (Trichophyton rubrum): >500 ppm

bis THP phosphite [50% bis THP phosphite]
Mg. growth (% of control) (Trichophyton rubrum; 5 ppm (Active Compound)): (82) % of control | Mg. growth dry weight (Trichophyton rubrum; 5 ppm (Active Compound)): 8.7 Mg. | Mg. growth (% of control) (Trichophyton rubrum; 15 ppm (Active Compound)): (20) % of control | Mg. growth dry weight (Trichophyton rubrum; 15 ppm (Active Compound)): 2.1 Mg. | Mg. growth (% of control) (Trichophyton rubrum; 50 ppm (Active Compound)): (0) % of control | Mg. growth dry weight (Trichophyton rubrum; 50 ppm (Active Compound)): 0 Mg. | Mg. growth (% of control) (Trichophyton rubrum; 150 ppm (Active Compound)): (0) % of control | Mg. growth dry weight (Trichophyton rubrum; 150 ppm (Active Compound)): 0 Mg. | Mg. growth (% of control) (Trichophyton rubrum; 500 ppm (Active Compound)): (0) % of control | Mg. growth dry weight (Trichophyton rubrum; 500 ppm (Active Compound)): 0 Mg. | ED50 (Trichophyton rubrum): 10 ppm | ED90 (Trichophyton rubrum): 25 ppm

tetrakis(hydroxymethyl) phosphonium sulphate [THPS]
concentration giving a complete in vitro kill of Naegleria (Naegleria): 15 ppm

tetrakis(hydroxymethyl) phosphonium sulphate
infection of the other fish (protozoal infection): none of the other fish became infected | outcome for the infected fish (protozoal infection): recovered fully | tolerability in fish (feeding, distress) (protozoal infection): no signs of distress | concentration giving a high degree of lethal activity to the fungi (fungi): 100-150 ppm | concentration giving a high degree of lethal activity to bacteria (bacteria): at least 20 ppm
